Measured values as given in patent US8637556B2, “Linked Myc-max small molecule inhibitors” (University of Pittsburgh—Of the Commonwealth System of …, priority 2009, dated 2014).
Read-outs that look alike come from different tables or passages of the source.

Key:
[1] = test system: Daudi Burkitt lymphoma cells; assay: Burkitt's lymphoma cell growth inhibition (MTT assay); assay type: cell-based; details: Homo sapiens, Table 3, MTT, third day, read-out: Growth inhibition BL
Method: (§1) These assays were performed as previously described using HL60 promyelocytic leukemia cells and Daudi Burkitt lymphoma cells, each of which expresses high levels of endogenous c-Myc (Wang, H. et al. Mol. Cancer Ther. 6, 2399-408 (2007)). As controls for non-specific effects of bivalent compounds, we utilized a c-Myc nulllizygous strain of rat fibroblasts (Mateyak, M. K., et al. Cell Growth & Differentiation 8, 1039-48 (1997)) expressing the c-Myc target genes MT-MC1 and HMGAIb, each of which restores a normal growth rate as well as the TGR1 fibroblast line from which the nullizygous line was derived (Wang, H. et al. Mol. Cancer Ther. 6, 2399-408 (2007); Mateyak, M. K., et al. Cell Growth & Differentiation 8, 1039-48 (1997); and Rothermund, K. et al. Cancer Research 65, 2097-107 (2005)). […] Cell quantification was performed on triplicate wells over the ensuing 4-5 days without changing the medium by measuring the absorbance at 490 nm using the MTT assay (Mosmann, T. Journal of Immunological Methods 65, 55-63 (1983)). IC50 values were estimated from linear regression of the inhibition data at the third day of each experiment.
(§2) We evaluated the efficacy of the linked compounds 11, 12, 13, 16, 17, 18 in inhibiting the c-Myc-Max interaction by measuring the binding of a target DNA sequence (E-Box) by the protein heterodimers in an electrophoretic mobility shift assay (EMSA). […] A fluorinated substitute of 14, 24, the choice of which was based upon the results of structure activity relationship studies described in Wang, H. et al. (Mol. Cancer Ther. 6, 2399-408 (2007)), was employed at this purpose (Muller, K., et al. Science 317, 1881-6 (2007) and Kirk, K. L. Current Topics in Medicinal Chemistry 6, 1447-56 (2006)).

[2] = test system: HL60 promyelocytic leukemia cells; assay: HL60 cell growth inhibition (MTT assay); assay type: cell-based; details: Homo sapiens, HL-60; Table 3; MTT, third day; read-out: Growth inhibition HL60
Method: as §1, §2

[3] = molecular target: T1, c-Myc353-437 (monomeric c-Myc bHLH-ZIP) (Homo sapiens, UniProt P01106); assay: Fluorescence polarization titration, c-Myc bHLH-ZIP binding; details: for c-Myc binding affinity (in words): FP; for Kd: Table 1
T1 construct: recombinant monomeric c Myc bHLH-ZIP (amino acids 353-437); 6xHis with TEV site (N, cleaved yes); made in house; host or cells: E. coli BL21DE3(pLysS)
Excerpt: A c-Myc353-437 full-length bHLH-ZIP domain and its truncated version c-Myc390-439 were produced from the c-Myc/pET SKB3 construct, kindly supplied by Dr. S. K. Nair (University of Illinois, Urbana-Champaign), by insertion into the pET151D vector, encoding an N-terminal hexahistidine (6× His), separated by a TEV protease digestion site, with the TOPO® ligation system, and over-expressed in E. coli BL21DE3(pLysS). The 6× His tagged human Max isoform p21, with low homodimerization affinity^70, cloned into the pQE10 vector (Qiagen, Inc.), was over-expressed in E. coli M15(pRep4). Bacterial cultures were grown at 37° C. in LB medium to OD600≈0.8, then induced with 0.5 mM IPTG for 5 hours. Proteins were purified by Ni-agarose chromatography with a pH gradient elution. The 6× His tag of c-MYC353-437 and c-Myc390-439 was cleaved using TEV protease (the TEV protease was expressed in a pET24 vector [courtesy of S. K. Nair] and purified by Ni-agarose chromatography under native conditions). All the proteins were further purified by HPLC and lyophilized. Protein concentrations were determined by measurement of OD280. The synthetic peptide c-Myc363-381 is described in Follis, A. V., Hammoudeh, D. I., Wang, H., Prochownik, E & Metallo, S. J. Structural rationale for the coupled binding and unfolding of the c-Myc oncoprotein by small molecules. Chemistry & Biology 15, 1149-1155 (2008).
Samples were analyzed in a Photon Technology International QuantaMaster fluorimeter (Birmingham, N.J.) equipped with polymer sheet polarizers. Titration experiments were performed upon serial dilution of 1:1 equimolar solution of inhibitor and either c-Myc353-437, c-Myc390-439 or c-Myc363-381 in a 1×PBS buffer (137 mM NaCl, 2.7 mM KCl, 4.3 mM Na2HPO4, 1.4 mM KH2PO4, pH=7.4), 5% DMSO, over concentrations ranging between 200 μM and 1.5 nM. Excitation and emission wavelengths were independently determined for each inhibitor. Reported data represent the average of at least three independent experiments. Data were fit to a quadratic equation derived from the thermodynamic expression of binding equilibrium:
[formula] where [C]0 represents the total concentration of inhibitor and of c-Myc peptide. The value of KD was determined from the experimental polarization data by fitting to Eq. 2 using KaleidaGraph (Synergy Software, Reading, Pa.) where pol0 is the polarization in the absence of binding and Δpol is the total change in polarization (Park, S. H. & Raines, R. T. Fluorescence polarization assay to quantify protein-protein interactions. Methods in Molecular Biology 261, 161-6 (2004)).
[formula] Due to the very tight binding of some of the tested compounds, it was impossible to perform a full binding titration with an acceptable fluorescence intensity, therefore the polo parameter was experimentally determined from samples of each compound in the absence of c-Myc353-437 at a concentration of 25 μM. Binding specificity experiments were performed by monitoring the FP of 10 μM inhibitors solutions in the above-described buffer in the presence of equimolar p21 Max. […] Circular Dichroism.
Also in this case the c-Myc binding affinity was little affected by the introduction of the linker chain (Table 1, FIG. 11).
We then measured the affinity of the synthesized bivalent inhibitors, by monitoring the FP of the compounds nitrobenzofurazan moiety. […] The estimated free energy of binding of the bivalent compounds was roughly proportional to the sum of those of their monovalent components. In the thermodynamic analysis of multivalent binding a ΔG^s term is used to relate the free energy of binding of a multivalent compound to the sum of those of its monovalent components. This term implies the diverse energy contributions resulting from the linking of independent binding components. The ΔG^s term generally constitutes a negative contribution to the binding affinity of distinct binding components connected by a flexible linker to a given target.

[4] = FP titration with c-Myc353-437, 1xPBS pH 7.4, 5% DMSO, read-out: KD (c-Myc affinity, monovalent)

T1 sequence (P01106 368-452): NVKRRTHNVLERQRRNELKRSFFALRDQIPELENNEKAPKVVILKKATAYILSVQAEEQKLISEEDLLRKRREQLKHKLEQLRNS

In the case of `CCc1ccc(C=C2SC(=S)NC2=O)cc1` [compound 2, (Z,E)-5-(4-ethyl-benzylidene)-2-thioxo-thiazolidin-4-one, reference compound], the IC50 [1] is reported as 40 µM and the IC50 [2] is reported as 50 µM.

In the case of `O=[N+]([O-])c1ccc(Nc2ccccc2)c2nonc12` [compound 3], the “c-Myc binding affinity (in words)” value [3] is reported as “minor loss of c-Myc affinity” and the Kd [3, 4] is reported as 7 ± 1 µM.

With `CN(C)c1ccc([N+](=O)[O-])c2nonc12` [compound 4] the “c-Myc binding affinity (in words)” value [3] was “complete loss of binding affinity” and the Kd [3, 4] was greater than 200 µM.

For `O=C(O)c1ccccc1Nc1ccc([N+](=O)[O-])c2nonc12` [compound 5], the Kd [3, 4] was 13 ± 5 µM.

Compound `O=C(O)c1cccc(Nc2ccc([N+](=O)[O-])c3nonc23)c1` [compound 6] has a Kd [3, 4] of 16 ± 6 µM.

For `O=C(O)c1ccc(Nc2ccc([N+](=O)[O-])c3nonc23)cc1` [compound 7], the Kd [3, 4] was 3 ± 1 µM and the “c-Myc binding, times tighter than 5 and 6” value ([3]; relative to compounds 5 and 6) was roughly 5 times.

`CC(=O)NCCCCCNC(=O)c1ccc(C=C2SC(=S)NC2=O)cc1` [compound 10] was tested, and the Kd [3, 4] was 90 ± 40 µM.

Work on `CCc1ccc(C=C2SC(=O)N(CCCCNC(=O)c3ccc(Nc4ccc([N+](=O)[O-])c5nonc45)cc3)C2=O)cc1` [compound 21] yielded a Kd ([3]; FP of nitrobenzofurazan moiety, c-Myc353-437, read-out: KD (c-Myc affinity, bivalent)) of 0.004 ± 0.001 µM, an IC50 [1] of 14 to 16 µM and an IC50 [2] of 7 to 9 µM.
